Assay results published in PMC7587962, “Evaluation of Cytotoxicity and α-Glucosidase Inhibitory Activity of Amide and Polyamino-Derivatives of Lupane Triterpenoids” (Molecules, 2020).

Tests used:
[1] = tested on: CCRF-CEM; experiment: NCI-60 SRB screen: leukemia CCRF-CEM; assay type: cell-based; conditions: Homo sapiens, 48 h
[2] = tested on: RPMI-8226; experiment: NCI-60 SRB screen: leukemia RPMI-8226; assay type: cell-based; conditions: Homo sapiens, 48 h, RPMI-8226
[3] = tested on: SR; experiment: NCI-60 SRB screen: leukemia SR; assay type: cell-based; conditions: Homo sapiens, 48 h
[4] = tested on: A549/ATCC; experiment: NCI-60 SRB screen: non-small cell lung cancer A549/ATCC; assay type: cell-based, human; conditions: A549/ATCC
[5] = tested on: HOP-62; experiment: NCI-60 SRB screen: non-small cell lung cancer HOP-62; assay type: cell-based, human; conditions: HOP-62
[6] = tested on: NCI-H226; experiment: NCI-60 SRB screen: non-small cell lung cancer NCI-H226; assay type: cell-based, human; conditions: NCI-H226
[7] = tested on: NCI-H522; experiment: NCI-60 SRB screen: non-small cell lung cancer NCI-H522; assay type: cell-based, human; conditions: NCI-H522
[8] = tested on: HCC-2998; experiment: NCI-60 SRB screen: colon cancer HCC-2998; assay type: cell-based, human; conditions: HCC-2998
[9] = tested on: HCT-116; experiment: NCI-60 SRB screen: colon cancer HCT-116; assay type: cell-based; conditions: Homo sapiens, 48 h, HCT-116
[10] = tested on: HCT-15; experiment: NCI-60 SRB screen: colon cancer HCT-15; assay type: cell-based, human; conditions: HCT-15
[11] = tested on: SW-620; experiment: NCI-60 SRB screen: colon cancer SW-620; assay type: cell-based; conditions: Homo sapiens, 48 h, SW-620
[12] = tested on: SF-268; experiment: NCI-60 SRB screen: CNS cancer SF-268; assay type: cell-based, human; conditions: SF-268
[13] = tested on: SF-295; experiment: NCI-60 SRB screen: CNS cancer SF-295; assay type: cell-based, human; conditions: SF-295
[14] = tested on: SNB-19; experiment: NCI-60 SRB screen: CNS cancer SNB-19; assay type: cell-based, human; conditions: SNB-19
[15] = tested on: SNB-75; experiment: NCI-60 SRB screen: CNS cancer SNB-75; assay type: cell-based, human; conditions: SNB-75
[16] = tested on: U251; experiment: NCI-60 SRB screen: CNS cancer U251; assay type: cell-based; conditions: Homo sapiens, U251
[17] = tested on: LOX IMVI; experiment: NCI-60 SRB screen: melanoma LOX IMVI; assay type: cell-based, human
[18] = tested on: M14; experiment: NCI-60 SRB screen: melanoma M14; assay type: cell-based, human; conditions: M14
[19] = tested on: SK-MEL-2; experiment: NCI-60 SRB screen: melanoma SK-MEL-2; assay type: cell-based, human; conditions: SK-MEL-2
[20] = tested on: SK-MEL-28; experiment: NCI-60 SRB screen: melanoma SK-MEL-28; assay type: cell-based, human; conditions: SK-MEL-28
[21] = tested on: SK-MEL-5; experiment: NCI-60 SRB screen: melanoma SK-MEL-5; assay type: cell-based, human; conditions: SK-MEL-5
[22] = tested on: UACC-62; experiment: NCI-60 SRB screen: melanoma UACC-62; assay type: cell-based, human; conditions: UACC-62
[23] = tested on: IGROV1; experiment: NCI-60 SRB screen: ovarian cancer IGROV1; assay type: cell-based, human; conditions: IGROV1
[24] = tested on: OVCAR-4; experiment: NCI-60 SRB screen: ovarian cancer OVCAR-4; assay type: cell-based; conditions: Homo sapiens; OVCAR-4; five concentrations, 48 h, SRB; read-out: GI50
[25] = tested on: OVCAR-8; experiment: NCI-60 SRB screen: ovarian cancer OVCAR-8; assay type: cell-based, human; conditions: OVCAR-8
[26] = tested on: 786-0; experiment: NCI-60 SRB screen: renal cancer 786-0; assay type: cell-based, human; conditions: 786-0
[27] = tested on: SN12C; experiment: NCI-60 SRB screen: renal cancer SN12C; assay type: cell-based, human
[28] = tested on: TK-10; experiment: NCI-60 SRB screen: renal cancer TK-10; assay type: cell-based, human; conditions: TK-10
[29] = tested on: UO-31; experiment: NCI-60 SRB screen: renal cancer UO-31; assay type: cell-based, human; conditions: UO-31
[30] = tested on: DU-145; experiment: NCI-60 SRB screen: prostate cancer DU-145; assay type: cell-based, human; conditions: DU-145
[31] = tested on: MCF7; experiment: NCI-60 SRB screen: breast cancer MCF7; assay type: cell-based; conditions: Homo sapiens, 48 h, MCF7
[32] = tested on: HS 578T; experiment: NCI-60 SRB screen: breast cancer HS 578T; assay type: cell-based, human; conditions: HS 578T
[33] = tested on: MDA-MB-468; experiment: NCI-60 SRB screen: breast cancer MDA-MB-468; assay type: cell-based, human
[34] = tested on: 60 human tumor cell lines; conditions: single dose 10 µM
[35] = tested on: CNS cancer subpanel; experiment: NCI-60 screen, subpanel CNS cancer
[36] = tested on: Ovarian Cancer subpanel; experiment: NCI-60 screen, subpanel Ovarian Cancer
[37] = single dose 10 µM, read-out: Percentage Cell Growth
[38] = five concentrations, SRB, read-out: GI50
[39] = Homo sapiens, five concentrations, 48 h, SRB, read-out: GI50

CC(=O)OCC12CCC(C(C)C(N)=O)C1C1CCC3C4(C)CCC(OC(C)=O)C(C)(C)C4CCC3(C)C1(C)CC2 [Compound 4, 3β,28-Diacetyloxy-(20R)-29-amino-29-oxolupane]
activity at 10 µM [1, 37]: -12.4%
GI50 [1, 38]: 5.19 µM
activity at 10 µM [2, 37]: -18.3%
GI50 [2, 38]: 2.63 µM
activity at 10 µM [3, 37]: 10.8%
GI50 [3, 38]: 3.32 µM
Percentage Cell Growth ([4]; single dose 10 µM): 9.89%
GI50 [4, 39]: 3.97 µM
Percentage Cell Growth ([5]; single dose 10 µM): −72.98%
GI50 [5, 39]: 1.1 µM
GI50 [6, 39]: 7.28 µM
Percentage Cell Growth ([6]; single dose 10 µM): −58.51%
GI50 [7, 39]: 4.94 µM
Percentage Cell Growth ([7]; single dose 10 µM): −61.13%
Percentage Cell Growth ([8]; single dose 10 µM): −68.10%
GI50 [8, 39]: 10.4 µM
activity at 10 µM [9, 37]: -84.2%
GI50 [9, 38]: 3.57 µM
Percentage Cell Growth ([10]; single dose 10 µM): −44.10%
GI50 [10, 39]: 4.04 µM
activity at 10 µM [11, 37]: -55.1%
GI50 [11, 38]: 7.7 µM
GI50 [12, 39]: 6.95 µM
Percentage Cell Growth ([12]; single dose 10 µM): −61.04%
GI50 [13, 39]: 8.57 µM
Percentage Cell Growth ([13]; single dose 10 µM): −50.75%
GI50 [14, 39]: 11.9 µM
Percentage Cell Growth ([14]; single dose 10 µM): −39.95%
GI50 [15, 39]: 5.59 µM
Percentage Cell Growth ([15]; single dose 10 µM): −47.83%
activity at 10 µM ([16]; U-251, 48 h, single dose 10 µM, read-out: Percentage Cell Growth): -51.4%
GI50 ([16]; U-251, five concentrations, 48 h, SRB, read-out: GI50): 5.1 µM
GI50 [17, 39]: 10.2 µM
Percentage Cell Growth ([17]; single dose 10 µM): −85.52%
GI50 [18, 39]: 7.38 µM
Percentage Cell Growth ([18]; single dose 10 µM): −44.25%
GI50 [19, 39]: 10.8 µM
Percentage Cell Growth ([19]; single dose 10 µM): −77.63%
GI50 [20, 39]: 12 µM
Percentage Cell Growth ([20]; single dose 10 µM): −73.19%
GI50 [21, 39]: 3.8 µM
Percentage Cell Growth ([21]; single dose 10 µM): −71.94%
GI50 [22, 39]: 5.46 µM
Percentage Cell Growth ([22]; single dose 10 µM): −82.97%
GI50 ([23]; Homo sapiens, IGROV-1, five concentrations, 48 h, SRB, read-out: GI50): 13.2 µM
Percentage Cell Growth ([23]; single dose 10 µM): −71.25%
GI50 [24]: 4.72 µM
GI50 [25, 39]: 54.4 µM
Percentage Cell Growth ([25]; single dose 10 µM): −31.70%
Percentage Cell Growth ([26]; single dose 10 µM): −73.99%
GI50 [26, 39]: 10.9 µM
GI50 [27, 39]: 5.65 µM
Percentage Cell Growth ([27]; single dose 10 µM): −91.61%
GI50 [28, 39]: 14.7 µM
Percentage Cell Growth ([28]; single dose 10 µM): −35.40%
GI50 [29, 39]: 7.57 µM
Percentage Cell Growth ([29]; single dose 10 µM): −97.54%
Percentage Cell Growth ([30]; single dose 10 µM): −69.87%
GI50 [30, 39]: 9.94 µM
activity at 10 µM [31, 37]: -45.6%
GI50 [31, 38]: 3.27 µM
Percentage Cell Growth ([32]; single dose 10 µM): −32.99%
GI50 [32, 39]: 12.4 µM
GI50 [33, 39]: 3.96 µM
Percentage Cell Growth ([33]; single dose 10 µM): −40.40%
cancer cell lethality, range of percentage growth ([34]; cell lines with negative growth): −8.82% to −97.54%
cases of cancer cell lethality ([34]; number of cell lines): 57
MID b, average sensitivity of all cell line of particular subpanel [35]: 7.27 µM
Selectivity, ratio MID a: MID b [35]: 1.08
MID b, average sensitivity of all cell line of particular subpanel [36]: 15.97 µM
Selectivity, ratio MID a: MID b [36]: 0.49
